Measurements published in patent US10968178B2, “IP6K inhibitors” (TAKEDA PHARMACEUTICAL COMPANY LIMITED, priority 2017, dated 2021).

Legend:
Format in all cases: biochemical
[1] = target: T1, human IP6K2 (Homo sapiens, UniProt Q9UHH9); experiment: IP6K enzyme inhibitory assay (ADP-Glo Kinase Assay), human IP6K2; settings: compound concentration 0.1 μM; read-out: ADP-Glo method inhibitory rate (%) human IP6K2
T1 construct: human IP6K2 (1-426) gene; GST; made in house; host or cells: Sf-9 insect cells
T1 sequence (Q9UHH9 1-426): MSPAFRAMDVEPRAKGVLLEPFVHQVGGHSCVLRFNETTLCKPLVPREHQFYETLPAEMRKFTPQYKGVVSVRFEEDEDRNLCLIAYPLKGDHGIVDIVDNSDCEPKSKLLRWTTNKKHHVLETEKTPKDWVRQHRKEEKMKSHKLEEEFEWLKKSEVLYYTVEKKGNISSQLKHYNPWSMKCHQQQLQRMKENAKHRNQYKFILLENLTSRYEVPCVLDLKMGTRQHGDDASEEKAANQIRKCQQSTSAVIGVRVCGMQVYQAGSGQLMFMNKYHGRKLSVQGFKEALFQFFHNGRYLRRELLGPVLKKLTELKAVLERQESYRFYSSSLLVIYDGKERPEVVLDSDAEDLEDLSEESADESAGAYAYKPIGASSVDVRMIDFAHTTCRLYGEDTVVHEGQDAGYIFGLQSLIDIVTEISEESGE
Outline: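 The inhibitory activity against human IP6K2 was measured with Promega's ADP-Glo Kinase Assay in 384 well plates. Test compound, diluted in assay buffer (20 mM HEPES (pH 7.5), 6 mM MgCl2, 0.01% Tween-20, 1 mM DTT), was added at 2 μL. Adding 2 μL of diluted enzyme started the reaction, which ran for 60 min at room temperature. Next, 3 μL ADP-Glo solution (30 min) and 6 μL Kinase-Detection solution (60 min) were added, and luminescence was read on an Envision plate reader.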

[2] = target: T2, human IP6K1 (Homo sapiens, UniProt Q92551); experiment: IP6K enzyme inhibitory assay (ADP-Glo Kinase Assay), human IP6K1; settings: compound concentration 0.1 μM; read-out: ADP-Glo method inhibitory rate (%) human IP6K1
T2 construct: human IP6K1 (1-441) gene; GST; made in house; host or cells: Sf-9 insect cells
T2 sequence (Q92551 whole entry): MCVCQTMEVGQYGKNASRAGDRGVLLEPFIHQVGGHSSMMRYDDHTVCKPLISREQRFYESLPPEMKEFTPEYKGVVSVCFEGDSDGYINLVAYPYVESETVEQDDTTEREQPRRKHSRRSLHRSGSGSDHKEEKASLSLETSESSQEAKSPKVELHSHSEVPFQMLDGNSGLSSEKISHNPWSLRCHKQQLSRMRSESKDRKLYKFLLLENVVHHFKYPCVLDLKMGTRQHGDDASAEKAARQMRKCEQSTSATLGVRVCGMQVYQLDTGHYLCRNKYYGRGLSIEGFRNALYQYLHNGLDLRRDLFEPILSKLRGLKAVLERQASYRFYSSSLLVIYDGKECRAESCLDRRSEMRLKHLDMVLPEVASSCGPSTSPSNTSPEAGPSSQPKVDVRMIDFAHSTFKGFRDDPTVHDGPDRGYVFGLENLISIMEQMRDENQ
Outline: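 Inhibition of human IP6K1 was determined with Promega's ADP-Glo Kinase Assay in 384 well plates. Test compound diluted in assay buffer (20 mM HEPES (pH 7.5), 6 mM MgCl2, 0.01% Tween-20, 1 mM DTT) was added at 2 μL, then 2 μL of enzyme started the reaction for 60 min at room temperature. Next came 3 μL ADP-Glo solution for 30 min and 6 μL Kinase-Detection solution for 60 min. Luminescence was read on an Envision plate reader.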

[3] = target: T3, human IP6K3 (Homo sapiens, UniProt Q96PC2); experiment: IP6K enzyme inhibitory assay (ADP-Glo Kinase Assay), human IP6K3; settings: compound concentration 0.1 μM; read-out: ADP-Glo method inhibitory rate (%) human IP6K3
T3 construct: human IP6K3 (1-410) gene; made in house; host or cells: BL21 (DE3) Escherichia coli
T3 sequence (Q96PC2 1-410): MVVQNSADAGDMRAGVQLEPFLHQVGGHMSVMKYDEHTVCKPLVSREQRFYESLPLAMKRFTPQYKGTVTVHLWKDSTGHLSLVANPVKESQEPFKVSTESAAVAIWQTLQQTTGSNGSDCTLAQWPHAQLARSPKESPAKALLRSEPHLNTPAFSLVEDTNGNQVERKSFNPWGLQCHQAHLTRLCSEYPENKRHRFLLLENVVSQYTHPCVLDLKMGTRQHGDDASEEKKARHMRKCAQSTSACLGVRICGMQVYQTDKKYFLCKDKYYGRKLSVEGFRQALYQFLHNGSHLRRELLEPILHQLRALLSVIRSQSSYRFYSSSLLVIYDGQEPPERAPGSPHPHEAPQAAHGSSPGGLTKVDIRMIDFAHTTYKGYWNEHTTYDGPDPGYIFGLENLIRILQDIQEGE
Outline: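 Recombinant human IP6K (IP6K3 residues 1-410, E. coli, Ni-NTA purified) incubated with compound in 20 mM HEPES pH 7.5, 6 mM MgCl2, 0.01% Tween-20, 1 mM DTT for 60 min at room temperature. ADP formed read as luminescence by ADP-Glo.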

| Compound | inhibition at 0.1 µM [1] [%] | inhibition at 0.1 µM [2] [%] | inhibition at 0.1 µM [3] [%] |
| --- | --- | --- | --- |
| O=C(O)c1ccc2c(n1)[C@]1(CC[C@@H](Oc3ncc(C(F)(F)F)cc3Cl)CC1)C(=O)N2 [Example 105, (1r,4r)-4-((3-chloro-5-(trifluoromethyl)pyridin-2-yl)oxy)-2′-oxo-1′,2′-dihydrospiro[cyclohexane-1,3′-pyrrolo[3,2-b]pyridine]-5′-carboxylic acid] | 94 | 86 | 95 |
| Cc1c(Cl)cnc(O[C@H]2CC[C@]3(CC2)C(=O)Nc2ccc(C(=O)O)nc23)c1C#N [Example 106, (1s,4s)-4-((5-chloro-3-cyano-4-methylpyridin-2-yl)oxy)-2′-oxo-1′,2′-dihydrospiro[cyclohexane-1,3′-pyrrolo[3,2-b]pyridine]-5′-carboxylic acid] | 97 | 96 | 95 |
| O=C(O)c1ccc2c(c1)[C@]1(CC[C@H](Oc3ccccc3)CC1)C(=O)N2 [Example 107, (1s,4s)-2′-oxo-4-phenoxy-1′,2′-dihydrospiro[cyclohexane-1,3′-indole]-5′-carboxylic acid] | 93 | 94 | 92 |
| O=C(O)c1ccc2c(c1)[C@]1(CC[C@H](Oc3ccc(Cl)cc3)CC1)C(=O)N2 [Example 108, (1s,4s)-4-(4-chlorophenoxy)-2′-oxo-1′,2′-dihydrospiro[cyclohexane-1,3′-indole]-5′-carboxylic acid] | 101 | 97 | 99 |
| O=C(O)c1ccc2c(n1)[C@]1(CC[C@@H](Oc3ncc(C4CC4)cc3C(F)(F)F)CC1)C(=O)N2 [Example 109, (1r,4r)-4-((5-cyclopropyl-3-(trifluoromethyl)pyridin-2-yl)oxy)-2′-oxo-1′,2′-dihydrospiro[cyclohexane-1,3′-pyrrolo[3,2-b]pyridine]-5′-carboxylic acid] | 95 | 94 | 95 |
| N#Cc1cc(Cl)cnc1O[C@H]1CC[C@]2(CC1)C(=O)Nc1ccc(C(=O)O)nc12 [Example 110, (1s,4s)-4-((5-chloro-3-cyanopyridin-2-yl)oxy)-2′-oxo-1′,2′-dihydrospiro[cyclohexane-1,3′-pyrrolo[3,2-b]pyridine]-5′-carboxylic acid] | 96 | 84 | 96 |
| O=C(O)c1ccc2c(n1)[C@]1(CC[C@H](Oc3ncc(C4CC4)cc3Cl)CC1)C(=O)N2 [Example 111, (1s,4s)-4-((3-chloro-5-cyclopropylpyridin-2-yl)oxy)-2′-oxo-1′,2′-dihydrospiro[cyclohexane-1,3′-pyrrolo[3,2-b]pyridine]-5′-carboxylic acid] | 99 | 91 | 98 |
| Cc1cc(C(F)(F)F)cnc1O[C@H]1CC[C@@]2(CC1)C(=O)Nc1ccc(C(=O)O)nc12 [Example 112, (1r,4r)-4-((3-methyl-5-(trifluoromethyl)pyridin-2-yl)oxy)-2′-oxo-1′,2′-dihydrospiro[cyclohexane-1,3′-pyrrolo[3,2-b]pyridine]-5′-carboxylic acid] | 90 | 90 | 97 |
| O=C(O)c1ccc2c(c1)[C@]1(CC[C@@H](Oc3ccccc3)CC1)C(=O)N2 [Example 113, (1r,4r)-2′-oxo-4-phenoxy-1′,2′-dihydrospiro[cyclohexane-1,3′-indole]-5′-carboxylic acid] | 79 | 79 | 85 |
| O=C(O)c1ccc2c(c1)[C@]1(CC[C@@H](Oc3ccc(Cl)cc3)CC1)C(=O)N2 [Example 114, (1r,4r)-4-(4-chlorophenoxy)-2′-oxo-1′,2′-dihydrospiro[cyclohexane-1,3′-indole]-5′-carboxylic acid] | 101 | 99 | 96 |
| O=C(O)c1ccc2c(n1)[C@]1(CC[C@H](Oc3ncc(C(F)(F)F)cc3Cl)CC1)C(=O)N2 [Example 115, (1s,4s)-4-((3-chloro-5-(trifluoromethyl)pyridin-2-yl)oxy)-2′-oxo-1′,2′-dihydrospiro[cyclohexane-1,3′-pyrrolo[3,2-b]pyridine]-5′-carboxylic acid] | 99 | 97 | 99 |
